“And” between values parts separate entries of the source, which are not always exact repeats. Identical values can stand only once. Like-named read-outs stand apart in the source and are kept apart here.
Target: HIV-1LAI envelope gp120 (Human immunodeficiency virus type 1 group M subtype B, UniProt P03377)
Format: binding
Conditions: for Counts per 20′ Average-background: CCR5 18-mer scan, radiolabeled HIV-1LAI gp120; for Binding Results For Window Length (counts bound-background), 9 / Binding Results For Window Length (counts bound-background), 12 / Binding Results For Window Length (counts bound-background), 15 / Binding Results For Window Length (counts bound-background), 18: STRL33 amino terminus; for Binding Results For Window Length (counts bound-background), 9: 9-mer starting at the first residue of the printed sequence; for Binding Results For Window Length (counts bound-background), 12: 12-mer starting at the first residue of the printed sequence; for Binding Results For Window Length (counts bound-background), 15: 15-mer starting at the first residue of the printed sequence; for Binding Results For Window Length (counts bound-background), 18: 18-mer starting at the first residue of the printed sequence
[1] = Panel B, 15-mers and 18-mers of CD4, empty control 575
[2] = Panel A, 21-mers of CD4, empty control 515 and 617
[3] = human CD4 21-mer scan, empty control 2075
[4] = CXCR4 18-mer scan, background subtracted, empty control 0
[5] = CXCR4 18-mer scan, empty control 412
[6] = Panel D, 9-mers and 12-mers of CD4, empty control […]
[7] = Panel C, 15-mers and 18-mers of CD4, empty control 556
[8] = Panel F, sequential alanine replacements of CD4 polypeptides, duplicate series, empty control 569
[9] = Panel E, 9-mers and 12-mers of CD4, empty control 571
[10] = Panel G, alanine replacements and serial truncations (Z) of CD4 polypeptides, empty control 580

Sequence: NSDTHLLQGQSLTLT
- COUNTS of radiolabeled gp120 retained [1]: 631 counts

Sequence: KIDIVVLAFQKASSIVYKKEG
- COUNTS of radiolabeled gp120 retained [2]: 1394 counts
- number of radioactive decays (counts) counted [3]: 3681 counts

Sequence: LKARTVTFGVWDSVITWV [CCR5 segment 137-]
- Counts per 20′ Average-background (background subtracted): 74 counts per 20′

Sequence: MNRGVPFRRLLLVLQLALLPA [human CD4 1-21]
- number of radioactive decays (counts) counted [3]: 3587 counts

Sequence: KASSIVYKKEGEQVEFSFPLA [human CD4 206-226]
- COUNTS of radiolabeled gp120 retained [2]: 30873 counts
- number of radioactive decays (counts) counted [3]: 14347 counts

Sequence: IVGNGLVILVMGYQKKLR [CXCR4 segment 53-70]
- radioactive counts recorded in twenty minutes [4]: 238 counts
- radioactive counts recorded in twenty minutes [5]: 650 counts

Sequence: DTYICEVEDQKE
- COUNTS of radiolabeled gp120 retained [6]: 720 counts

Sequence: PLAFTVEKLTGSGELWWQ
- COUNTS of radiolabeled gp120 retained [7]: 650 counts

Sequence: DAVANWYFGNFLCKAVHV
- radioactive counts recorded in twenty minutes [4]: 112 counts
- radioactive counts recorded in twenty minutes [5]: 524 counts

Sequence: FGLTANSDTHLL
- COUNTS of radiolabeled gp120 retained [6]: 571 counts

Sequence: LSKGKRGGHSSVSTESES
- radioactive counts recorded in twenty minutes [4]: 185 counts
- radioactive counts recorded in twenty minutes [5]: 597 counts

Sequence: EEVQLLVFGLTANAD
- COUNTS of radiolabeled gp120 retained [8]: 17928 counts and 17684 counts

Sequence: FTVEKLTGS
- COUNTS of radiolabeled gp120 retained [9]: 574 counts

Sequence: KKVEFKIDI
- COUNTS of radiolabeled gp120 retained [9]: 501 counts

Sequence: QLLVFGLTANSD
- COUNTS of radiolabeled gp120 retained [6]: 721 counts

Sequence: VLQNQKKVE
- COUNTS of radiolabeled gp120 retained [9]: 556 counts

Sequence: SIVYKKEGEQVEFSF
- COUNTS of radiolabeled gp120 retained [7]: 651 counts

Sequence: TYICEVEDQKEEVQL
- COUNTS of radiolabeled gp120 retained [1]: 956 counts

Sequence: FPLAFTVEKLTGSGE
- COUNTS of radiolabeled gp120 retained [7]: 556 counts

Sequence: LVFGLTANSDTHLLQ
- COUNTS of radiolabeled gp120 retained [1]: 609 counts

Sequence: GEQVEFSFPAAFTVE
- COUNTS of radiolabeled gp120 retained [10]: 10024 counts and 10589 counts

Sequence: QAMQVTETLGMTHCCINP [CCR5 segment 277-]
- Counts per 20′ Average-background (background subtracted): 81 counts per 20′

Sequence: LAFQKASSI
- COUNTS of radiolabeled gp120 retained [9]: 592 counts

Sequence: VSVKRVTQDPKLQMGKKLPLH
- number of radioactive decays (counts) counted: 1848 counts

Sequence: MLVILILINCKRLKSMTD [CCR5 segment 49-66]
- Counts per 20′ Average-background (background subtracted): 84 counts per 20′

Sequence: VEFSFPLAFTVE
- COUNTS of radiolabeled gp120 retained [9]: 518 counts

Sequence: LLVFGLTANSDTHLL
- COUNTS of radiolabeled gp120 retained [1]: 599 counts

Sequence: QGQSLTLTL
- COUNTS of radiolabeled gp120 retained [6]: 594 counts

Sequence: TANSDTHLLQGQSLT
- COUNTS of radiolabeled gp120 retained [1]: 513 counts

Sequence: EEVQLLVFGLTAASD
- COUNTS of radiolabeled gp120 retained [8]: 19200 counts and 19390 counts

Sequence: FSFPLAFTVEKLTGS
- COUNTS of radiolabeled gp120 retained [7]: 672 counts

Sequence: KVEFKIDIVVLA
- COUNTS of radiolabeled gp120 retained [9]: 560 counts

Sequence: EVQLLVFGLTANSDT
- COUNTS of radiolabeled gp120 retained [1]: 2689 counts

Sequence: CKAVHVIYTVNLYSSVLI
- radioactive counts recorded in twenty minutes [4]: 243 counts
- radioactive counts recorded in twenty minutes [5]: 655 counts

Sequence: LVFGLTANSDTH
- COUNTS of radiolabeled gp120 retained [6]: 586 counts

Sequence: AEQVEFSFPLAFTVE
- COUNTS of radiolabeled gp120 retained [10]: 18042 counts and 18546 counts

Sequence: MAEHDYHEDYGFSSFNDS [STRL33 segment 1-18]
- radioactive counts recorded in twenty minutes (STRL33 18-mer scan, background subtracted, first of two count columns): 1178.5 counts
- radioactive counts recorded in twenty minutes (STRL33 18-mer scan, background subtracted, second of two count columns): 1320.5 counts
- Binding Results For Window Length (counts bound-background), 9 (background subtracted): 160 counts
- Binding Results For Window Length (counts bound-background), 12 (background subtracted): 625 counts
- Binding Results For Window Length (counts bound-background), 15 (background subtracted): 1239 counts
- Binding Results For Window Length (counts bound-background), 18 (background subtracted): 1386 counts

Sequence: QLLVFGLTA
- COUNTS of radiolabeled gp120 retained [6]: 822 counts

Sequence: EDYGFSSFNDSSQEEHQA
- Binding Results For Window Length (counts bound-background), 9 (background subtracted): 953 counts
- Binding Results For Window Length (counts bound-background), 12 (background subtracted): 817 counts
- Binding Results For Window Length (counts bound-background), 15 (background subtracted): 1152 counts
- Binding Results For Window Length (counts bound-background), 18 (background subtracted): 548 counts

Sequence: TYICEVEDQ
- COUNTS of radiolabeled gp120 retained [6]: 805 counts

Sequence: NQKKVEFKIDIVVLA
- COUNTS of radiolabeled gp120 retained [7]: 860 counts

Sequence: VFASLPGIIFTRSQKEGL [CCR5 segment 157-]
- Counts per 20′ Average-background (background subtracted): 54 counts per 20′

Sequence: HLLQGQSLTLTL
- COUNTS of radiolabeled gp120 retained [6]: 701 counts

Sequence: MEGISIYTSANYTEEMGS
- Relative % of Control (CXCR4 (1-18) alanine variants, mean of two syntheses and binding experiments ± average deviation, wild-type = 100%): 71 ± 8%

Sequence: LIIKNLKIEDSD
- COUNTS of radiolabeled gp120 retained [6]: 619 counts

Sequence: CEVEDQKEEVQLLVF
- COUNTS of radiolabeled gp120 retained [1]: 1729 counts

Sequence: FPLIIKNLKIEDSDTYIC
- COUNTS of radiolabeled gp120 retained [1]: 509 counts
